In patent US20230017045A1, “PYRIDINE AND PYRIMIDINE CARBOXYLATE HERBICIDES AND METHODS OF USE THEREOF” (Dow AgroSciences LLC, priority 2017, published 2023):

Test system: test plant species
Assay: Post-emergent herbicidal activity test (greenhouse, foliar spray, visual growth reduction)
Assay type: in vivo
Details: post-emergence, 336 h, ECHCG: barnyardgrass (Echinochloa crus-galli), 140 g ai/ha, 14 days after application, read-out: Visual Growth Reduction (%) 14 Days After Application, ECHCG
Procedure: Post-emergent Test: Seeds or nutlets of the desired test plant species were planted in Sun Gro Metro-Mix® 360 planting mixture, which typically has a pH of 6.0 to 6.8 and an organic matter content of about 30 percent, in plastic pots with a surface area of 64 square centimeters. In some aspects, to ensure good germination and healthy plants, a fungicide treatment and/or other chemical or physical treatment was applied. The plants were grown for 7-21 d in a greenhouse with an approximate 15 h photoperiod which was maintained at 23-29° C. during the day and 22-28° C. during the night. Nutrients and water were added on a regular basis and supplemental lighting was provided with overhead metal halide 1000-Watt lamps as necessary. Plants were used for testing when they reached the first or second true leaf stage. A weighed amount, determined by the highest rate to be tested, of each test compound was placed in a 25 mL glass vial and was dissolved in 4 mL of a 97:3 v/v mixture of acetone and DMSO to obtain concentrated stock solutions. […] The concentrated stock solutions obtained were diluted with 20 mL of an aqueous mixture containing acetone, water, isopropyl alcohol, DMSO, […] crop oil concentrate, and X-77 surfactant in a 48.5:39:10:1.5:1.0:0.02 v/v ratio to obtain spray solutions containing the application rate. Compound requirements are based upon a 12 mL application volume at a rate of 187 liters per hectare (L/ha). Formulated compounds were applied to the plant material with an overhead Mandel track sprayer equipped with […] nozzles calibrated to deliver 187 L/ha over an application area of 0.64 square meters at a spray height of 18 inches (43 cm) above the average plant canopy height. Control plants were sprayed in the same manner with the solvent blank. The treated plants and control plants were placed in a greenhouse as described above and watered by subirrigation to prevent wash-off of the test compounds. After 14 d, the condition of the test plants as compared with that of the nontreated and control plants was determined visually and scored on a scale of 0 to 100 percent where 0 corresponds to no injury and 100 corresponds to complete control. In the reporting of the results, Table A: Percent Growth Reduction Conversion Table was used.

Compound	pest or weed control at 140 g/ha
CCCCOc1c(Cl)ccc(-c2ccc(Cl)c(C(=O)OC)n2)c1F [F279, Methyl 6-(3-butoxy-4-chloro-2-fluorophenyl)-3-chloropicolinate]	0 to 29%
C=Cc1cc(-c2nc(C(=O)O)c(Cl)cc2F)c(Cl)cc1C(F)(F)F [F350, 3-Chloro-6-(2-chloro-4-(trifluoromethyl)-5-vinylphenyl)-5-fluoropicolinic acid]	0 to 29%

Same assay, conditions: post-emergence, 336 h, IPOHE: ivy-leaf morning glory (Ipomoea hederacea), 140 g ai/ha, 14 days after application, read-out: Visual Growth Reduction (%) 14 Days After Application, IPOHE

Compound	pest or weed control at 140 g/ha
CCCCOc1c(Cl)ccc(-c2ccc(Cl)c(C(=O)OC)n2)c1F [F279, Methyl 6-(3-butoxy-4-chloro-2-fluorophenyl)-3-chloropicolinate]	0 to 29%
C=Cc1cc(-c2nc(C(=O)O)c(Cl)cc2F)c(Cl)cc1C(F)(F)F [F350, 3-Chloro-6-(2-chloro-4-(trifluoromethyl)-5-vinylphenyl)-5-fluoropicolinic acid]	85 to 94%

Same assay, conditions: post-emergence, 336 h, KCHSC: kochia (Bassia scoparia), 140 g ai/ha, 14 days after application, read-out: Visual Growth Reduction (%) 14 Days After Application, KCHSC

Compound	pest or weed control at 140 g/ha
CCCCOc1c(Cl)ccc(-c2ccc(Cl)c(C(=O)OC)n2)c1F [F279, Methyl 6-(3-butoxy-4-chloro-2-fluorophenyl)-3-chloropicolinate]	0 to 29%
C=Cc1cc(-c2nc(C(=O)O)c(Cl)cc2F)c(Cl)cc1C(F)(F)F [F350, 3-Chloro-6-(2-chloro-4-(trifluoromethyl)-5-vinylphenyl)-5-fluoropicolinic acid]	85 to 94%

Same assay, conditions: post-emergence, 336 h, ORYSA: rice (Oryza sativa), 140 g ai/ha, 14 days after application, read-out: Visual Growth Reduction (%) 14 Days After Application, ORYSA

Compound	pest or weed control at 140 g/ha
CCCCOc1c(Cl)ccc(-c2ccc(Cl)c(C(=O)OC)n2)c1F [F279, Methyl 6-(3-butoxy-4-chloro-2-fluorophenyl)-3-chloropicolinate]	0 to 29%
C=Cc1cc(-c2nc(C(=O)O)c(Cl)cc2F)c(Cl)cc1C(F)(F)F [F350, 3-Chloro-6-(2-chloro-4-(trifluoromethyl)-5-vinylphenyl)-5-fluoropicolinic acid]	0 to 29%

Same assay, conditions: post-emergence, 336 h, SETFA: giant foxtail (Setaria faberi), 140 g ai/ha, 14 days after application, read-out: Visual Growth Reduction (%) 14 Days After Application, SETFA

Compound	pest or weed control at 140 g/ha
CCCCOc1c(Cl)ccc(-c2ccc(Cl)c(C(=O)OC)n2)c1F [F279, Methyl 6-(3-butoxy-4-chloro-2-fluorophenyl)-3-chloropicolinate]	0 to 29%
C=Cc1cc(-c2nc(C(=O)O)c(Cl)cc2F)c(Cl)cc1C(F)(F)F [F350, 3-Chloro-6-(2-chloro-4-(trifluoromethyl)-5-vinylphenyl)-5-fluoropicolinic acid]	0 to 29%

Same assay, conditions: post-emergence, 336 h, SORVU: grain sorghum (Sorghum vulgare), 140 g ai/ha, 14 days after application, read-out: Visual Growth Reduction (%) 14 Days After Application, SORVU

Compound	pest or weed control at 140 g/ha
CCCCOc1c(Cl)ccc(-c2ccc(Cl)c(C(=O)OC)n2)c1F [F279, Methyl 6-(3-butoxy-4-chloro-2-fluorophenyl)-3-chloropicolinate]	0 to 29%
C=Cc1cc(-c2nc(C(=O)O)c(Cl)cc2F)c(Cl)cc1C(F)(F)F [F350, 3-Chloro-6-(2-chloro-4-(trifluoromethyl)-5-vinylphenyl)-5-fluoropicolinic acid]	0 to 29%

Same assay, conditions: post-emergence, 336 h, STEME: common chickweed (Stellaria media), 140 g ai/ha, 14 days after application, read-out: Visual Growth Reduction (%) 14 Days After Application, STEME

Compound	pest or weed control at 140 g/ha
CCCCOc1c(Cl)ccc(-c2ccc(Cl)c(C(=O)OC)n2)c1F [F279, Methyl 6-(3-butoxy-4-chloro-2-fluorophenyl)-3-chloropicolinate]	0 to 29%
C=Cc1cc(-c2nc(C(=O)O)c(Cl)cc2F)c(Cl)cc1C(F)(F)F [F350, 3-Chloro-6-(2-chloro-4-(trifluoromethyl)-5-vinylphenyl)-5-fluoropicolinic acid]	0 to 29%

Same assay, conditions: post-emergence, 336 h, TRZAS: wheat, spring (Triticum aestivum), 140 g ai/ha, 14 days after application, read-out: Visual Growth Reduction (%) 14 Days After Application, TRZAS

Compound	pest or weed control at 140 g/ha
CCCCOc1c(Cl)ccc(-c2ccc(Cl)c(C(=O)OC)n2)c1F [F279, Methyl 6-(3-butoxy-4-chloro-2-fluorophenyl)-3-chloropicolinate]	0 to 29%
C=Cc1cc(-c2nc(C(=O)O)c(Cl)cc2F)c(Cl)cc1C(F)(F)F [F350, 3-Chloro-6-(2-chloro-4-(trifluoromethyl)-5-vinylphenyl)-5-fluoropicolinic acid]	0 to 29%

Same assay, conditions: post-emergence, 336 h, blackgrass (Alopecurus myosuroides), 14 Days After Application, 140 g ai/ha, read-out: Visual Growth Reduction (%) ALOMY

Compound	pest or weed control at 140 g/ha
CCCCOc1c(Cl)ccc(-c2ccc(Cl)c(C(=O)OC)n2)c1F [F279, Methyl 6-(3-butoxy-4-chloro-2-fluorophenyl)-3-chloropicolinate]	0 to 29%
C=Cc1cc(-c2nc(C(=O)O)c(Cl)cc2F)c(Cl)cc1C(F)(F)F [F350, 3-Chloro-6-(2-chloro-4-(trifluoromethyl)-5-vinylphenyl)-5-fluoropicolinic acid]	0 to 29%

Same assay, conditions: post-emergence, 336 h, canada thistle (Cirsium arvense), 14 Days After Application, 140 g ai/ha, read-out: Visual Growth Reduction (%) CIRAR

Compound	pest or weed control at 140 g/ha
CCCCOc1c(Cl)ccc(-c2ccc(Cl)c(C(=O)OC)n2)c1F [F279, Methyl 6-(3-butoxy-4-chloro-2-fluorophenyl)-3-chloropicolinate]	0 to 29%

Same assay, conditions: post-emergence, 336 h, crabgrass (Digitaria sanguinalis), 14 Days After Application, 140 g ai/ha, read-out: Visual Growth Reduction (%) DIGSA

Compound	pest or weed control at 140 g/ha
CCCCOc1c(Cl)ccc(-c2ccc(Cl)c(C(=O)OC)n2)c1F [F279, Methyl 6-(3-butoxy-4-chloro-2-fluorophenyl)-3-chloropicolinate]	0 to 29%
C=Cc1cc(-c2nc(C(=O)O)c(Cl)cc2F)c(Cl)cc1C(F)(F)F [F350, 3-Chloro-6-(2-chloro-4-(trifluoromethyl)-5-vinylphenyl)-5-fluoropicolinic acid]	30 to 44%

Same assay, conditions: post-emergence, 336 h, lambsquarters (Chenopodium album), 14 Days After Application, 140 g ai/ha, read-out: Visual Growth Reduction (%) CHEAL

Compound	pest or weed control at 140 g/ha
CCCCOc1c(Cl)ccc(-c2ccc(Cl)c(C(=O)OC)n2)c1F [F279, Methyl 6-(3-butoxy-4-chloro-2-fluorophenyl)-3-chloropicolinate]	0 to 29%
C=Cc1cc(-c2nc(C(=O)O)c(Cl)cc2F)c(Cl)cc1C(F)(F)F [F350, 3-Chloro-6-(2-chloro-4-(trifluoromethyl)-5-vinylphenyl)-5-fluoropicolinic acid]	60 to 74%

Same assay, conditions: post-emergence, 336 h, redroot pigweed (Amaranthus retroflexus), 14 Days After Application, 140 g ai/ha, read-out: Visual Growth Reduction (%) AMARE

Compound	pest or weed control at 140 g/ha
CCCCOc1c(Cl)ccc(-c2ccc(Cl)c(C(=O)OC)n2)c1F [F279, Methyl 6-(3-butoxy-4-chloro-2-fluorophenyl)-3-chloropicolinate]	0 to 29%
C=Cc1cc(-c2nc(C(=O)O)c(Cl)cc2F)c(Cl)cc1C(F)(F)F [F350, 3-Chloro-6-(2-chloro-4-(trifluoromethyl)-5-vinylphenyl)-5-fluoropicolinic acid]	30 to 44%

Same assay, conditions: post-emergence, 336 h, wild oat (Avena fatua), 14 Days After Application, 140 g ai/ha, read-out: Visual Growth Reduction (%) AVEFA

Compound	pest or weed control at 140 g/ha
CCCCOc1c(Cl)ccc(-c2ccc(Cl)c(C(=O)OC)n2)c1F [F279, Methyl 6-(3-butoxy-4-chloro-2-fluorophenyl)-3-chloropicolinate]	0 to 29%
C=Cc1cc(-c2nc(C(=O)O)c(Cl)cc2F)c(Cl)cc1C(F)(F)F [F350, 3-Chloro-6-(2-chloro-4-(trifluoromethyl)-5-vinylphenyl)-5-fluoropicolinic acid]	0 to 29%

Same assay, conditions: post-emergence, 336 h, yellow nutsedge (Cyperus esculentus), 14 Days After Application, 140 g ai/ha, read-out: Visual Growth Reduction (%) CYPES

Compound	pest or weed control at 140 g/ha
CCCCOc1c(Cl)ccc(-c2ccc(Cl)c(C(=O)OC)n2)c1F [F279, Methyl 6-(3-butoxy-4-chloro-2-fluorophenyl)-3-chloropicolinate]	0 to 29%
C=Cc1cc(-c2nc(C(=O)O)c(Cl)cc2F)c(Cl)cc1C(F)(F)F [F350, 3-Chloro-6-(2-chloro-4-(trifluoromethyl)-5-vinylphenyl)-5-fluoropicolinic acid]	0 to 29%
